Columns and labels:
[1] = molecular target: T1, BRAF^WT (Homo sapiens, UniProt P15056, A688R/F667E/I543A/I544S/I551K/K630S/K723G/L588N/L706S/L716E/P722S/Q562R/Q709R/S713E/Y673S); test: AUC sedimentation velocity; conditions: Figure 4b; vemurafenib 15 μM (Figure 8)
[2] = molecular target: BRAF^V600E (Homo sapiens, UniProt P15056, A688R/F667E/I543A/I544S/I551K/K630S/K723G/L588N/L706S/L716E/P722S/Q562R/Q709R/S713E/V600E/Y673S); test: AUC sedimentation velocity; conditions: Figure 4c; vemurafenib 15 μM (Figure 8)
[3] = molecular target: T1, BRAF^WT; test: Limited proteolysis with trypsin; conditions: 200 μM inhibitor, trypsin 30 minutes
[4] = molecular target: BRAF^R506A (Homo sapiens, UniProt P15056, A688R/F667E/I543A/I544S/I551K/K630S/K723G/L588N/L706S/L716E/P722S/Q562R/Q709R/R506A/S713E/Y673S); test: AUC sedimentation velocity; conditions: TAK632 at 15-25 μM, Figure 8a
[5] = molecular target: BRAF^W450A (Homo sapiens, UniProt P15056, A688R/F667E/I543A/I544S/I551K/K630S/K723G/L588N/L706S/L716E/P722S/Q562R/Q709R/S713E/W450A/Y673S); test: AUC sedimentation velocity; conditions: TAK632 at 15-25 μM, Figure 8a
[6] = molecular target: T2, BRAF^R509H/R506A/W450A (Homo sapiens, UniProt P15056, A688R/F667E/I543A/I544S/I551K/K630S/K723G/L588N/L706S/L716E/P722S/Q562R/Q709R/R506A/R509H/S713E/W450A/Y673S); test: AUC sedimentation velocity; conditions: 25 μM, Figure 8b
[7] = molecular target: T2, BRAF^R509H/R506A/W450A; test: AUC sedimentation equilibrium; conditions: in the presence of TAK632
[8] = test system: wild-type or mutant BRAF and CRAF; conditions: cited from earlier work
[9] = molecular target: BRAF^WT (Homo sapiens, UniProt P15056); test: ELISA kinase assay, phosphorylation of GST-MEK by purified BRAF kinase domain; type: biochemical; conditions: Figure 5b
[10] = molecular target: T1, BRAF^WT; test: Differential Scanning Calorimetry; type: binding; conditions: 37 μM protein

oligomeric state of BRAF^WT on adding inhibitor [1] | oligomeric state of BRAF^V600E on adding inhibitor [2] | fold reduced potency relative to TAK632 [9] [fold] | Compound | trypsin digestion pattern of BRAF^WT [3] | other results
form dimeric species | form dimeric species |  | N#Cc1c(Oc2ccc(F)c(NC(=O)Cc3cccc(C(F)(F)F)c3)c2)ccc2nc(NC(=O)C3CC3)sc12 [TAK632, N-{7-Cyano-6-[4-fluoro-3-({[3-(trifluoromethyl)phenyl]acetyl}amino)phenoxy]-1,3-benzothiazol-2-yl}cyclopropanecarboxamide] | species A becomes a minor band, while species B and C become major bands | oligomeric state of BRAF^R506A on adding inhibitor [4]: complete dimerization; oligomeric state of BRAF^W450A on adding inhibitor [5]: complete dimerization; oligomeric state of BRAF^R509H/R506A/W450A on adding inhibitor [6]: sediments less broadly and more closely to that of a monomer peak; molecular weight [7]: 47,000 kDa; IC50 values [8]: low nanomolar range
 |  | ~12 | N#Cc1c(Oc2ccc(F)c(NC(=O)Cc3cccc(C(F)(F)F)c3)c2)ccc2nc(NC(=O)COCCOCCOCC(=O)Nc3nc4ccc(Oc5ccc(F)c(NC(=O)Cc6cccc(C(F)(F)F)c6)c5)c(C#N)c4s3)sc12 [TAK-2-TAK] | digestion pattern resembling that of unliganded BRAF^WT | melting temperature of BRAF^WT, higher transition ([10]; 75 μM inhibitor): 58.65 °C; melting temperature of BRAF^WT, higher transition ([10]; 125 μM inhibitor): 59.6 °C; melting temperature of BRAF^WT, higher transition ([10]; 250 μM inhibitor): 62.64 °C
 |  | ~12 | N#Cc1c(Oc2ccc(F)c(NC(=O)Cc3cccc(C(F)(F)F)c3)c2)ccc2nc(NC(=O)COCCOCCOCCOCCOCC(=O)Nc3nc4ccc(Oc5ccc(F)c(NC(=O)Cc6cccc(C(F)(F)F)c6)c5)c(C#N)c4s3)sc12 [TAK-4-TAK] |  | 
 |  | ~4 | N#Cc1c(Oc2ccc(F)c(NC(=O)Cc3cccc(C(F)(F)F)c3)c2)ccc2nc(NC(=O)COCCOCCOCC(=O)Nc3nccs3)sc12 [TAK-L-C] | species A becomes a minor band, while species B and C become major bands | 
monomers were stabilized | dimers were disrupted |  | CCCS(=O)(=O)Nc1ccc(F)c(C(=O)c2c[nH]c3ncc(-c4ccc(Cl)cc4)cc23)c1F [vemurafenib] | species A as the major band, with negligible amounts of species B and C | 
